PMC10447463, “Data-mining unveils structure–property–activity correlation of viral infectivity enhancing self-assembling peptides” (Nature Communications, 2023)
Read-outs that look alike come from different tables or passages of the source.

Columns and labels:
[1] = Turbidity, derived count rate of scattered light; format: physicochemical; details: for Count Rate: derived count rate of scattered light (turbidity); for Log10 Count Rate: turbidity, derived count rate of scattered light, data of Figure 2D
[2] = Conversion rate (CR) assay with fluorescamine; format: physicochemical; parameters: key to CR: % = 100−100×filtrate/original fluorescence intensity; details: conversion rate, fluorescamine assay; for CR / %: Fig. S7 panel B
Method in brief: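 β-sheet content came from ATR FT-IR spectra of lyophilized 1 mg/mL nanofibril solution (64 scans, 2 cm^-1 resolution). Conversion was measured by separating free monomer with a 3 kDa cutoff filter, then comparing fluorescamine fluorescence (ex 365/em 470 nm, 20 min RT) of filtrate versus unfiltered sample, in triplicate.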

[3] = format: physicochemical; parameters: key to Fibril / Fibril Formation / TEM 2cat / Fibril: 1 = fibrils present; 0 non-fibrillar structures; details: for Fibril / Fibril Formation: 1 mg/mL, uranyl acetate stain, qualitative
[4] = format: physicochemical; details: for ThT Cat. / ThT-Fluorescence (categorical): ThT-active if fluorescence at least twice the control
Method in brief: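 Fibrils (1 mg/mL solution) were mixed with 50 µM ThT in PBS for 15 min at RT, and fluorescence was read at λex 440/λem 488 nm against a PBS blank, as a triplicate mean ± SD. Zeta potential came from electrophoretic mobility (Smoluchowski) after 1 d aggregation at 1 mg/mL in PBS pH 7.4, diluted into 1 mM KCl.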

[5] = TEM, 1 = fibrils present, 0 = non-fibrillar
[6] = TEM, 1 = fibrils present, 0 = non-fibrillar structures
[7] = category: fibrils present or non-fibrillar
[8] = FigS12 panel A, fibril category by TEM
[9] = ThT fluorescence category, 1 if Rel. ThT >2

| Substance | Count Rate [1] | Log10 Count Rate [1] | CR / % [2] [%] | CR [2] | TEM 2cat ([3]; Fig S10 panel D) | Fibril ([3]; Fig S10 panel E) | Fibril / Fibril Formation ([3]; TEM) | Fibril [3, 5] | Fibril [3, 6] | TEM 2cat [3, 7] | Tht category (> 2 to blank = +) ([4]; Fig S10 panel D) | ThT Cat. ([4]; Fig S10 panel E) | ThT Cat, ([4]; ThT category, 1 if Rel. ThT >2) | ThT Cat. ([4]; ThT category, 1 if Rel. ThT >2) | ThT Cat. / ThT-Fluorescence (categorical) [4] | TEM 2cat [3, 8] | Fibril ([3]; FigS12 panel B, TEM) | Tht category (> 2 to blank = +) ([4]; FigS12 panel A) | ThT Cat, ([4]; FigS12 panel B) | ThT Cat. [4, 9] |
| --- | --- | --- | --- | --- | --- | --- | --- | --- | --- | --- | --- | --- | --- | --- | --- | --- | --- | --- | --- | --- |
| CKFKFQFNM | 2224 | 3.347 | 93.5 | 93.52 | 1 | 1 | 1 | 1 | 1 | 1 | 1 (ThT. Cat is 1, if Rel. ThT >2) | 1 (ThT. Cat is 1, if Rel. ThT >2) | 1 (ThT. Cat is 1, if Rel. ThT >2) | 1 (ThT. Cat is 1, if Rel. ThT >2) | 1 (ThT. Cat is 1, if Rel. ThT >2) |  |  |  |  |  |
| SISISRRI | 25.27 | 1.403 | 24.2 | 24.22 | 0 | 0 | 0 | 0 | 0 |  | 0 (ThT-inactive (N-Fold <2)) | 0 (ThT-inactive (N-Fold <2)) | 0 (ThT-inactive (N-Fold <2)) | 0 (ThT-inactive (N-Fold <2)) | 0 (ThT-inactive (N-Fold <2)) | 0 | 0 | 0 (ThT-inactive (N-Fold <2)) | 0 (ThT-inactive (N-Fold <2)) |  |
| RGEKIKIQINM | 594.6 | 2.774 | 80.3 | 80.28 | 1 | 1 | 1 | 1 | 1 | 1 | 1 (ThT. Cat is 1, if Rel. ThT >2) | 1 (ThT. Cat is 1, if Rel. ThT >2) | 1 (ThT. Cat is 1, if Rel. ThT >2) | 1 (ThT. Cat is 1, if Rel. ThT >2) | 1 (ThT. Cat is 1, if Rel. ThT >2) |  |  |  |  |  |
| KIKQIINMWQ | 615.5 | 2.789 | 90.1 | 90.09 | 1 | 1 | 1 | 1 | 1 | 1 | 1 (ThT. Cat is 1, if Rel. ThT >2) | 1 (ThT. Cat is 1, if Rel. ThT >2) | 1 (ThT. Cat is 1, if Rel. ThT >2) | 1 (ThT. Cat is 1, if Rel. ThT >2) | 1 (ThT. Cat is 1, if Rel. ThT >2) |  |  |  |  |  |
| CKFC | 235.1 | 2.371 | 35.9 | 35.92 | 0 | 0 | 0 | 0 | 0 |  | 0 (ThT-inactive (N-Fold <2)) | 0 (ThT-inactive (N-Fold <2)) | 0 (ThT-inactive (N-Fold <2)) | 0 (ThT-inactive (N-Fold <2)) | 0 (ThT-inactive (N-Fold <2)) | 0 | 0 | 0 (ThT-inactive (N-Fold <2)) | 0 (ThT-inactive (N-Fold <2)) |  |
| MKFKFQF | 124 | 2.0933 | 86.9 | 86.86 | 1 | 1 | 1 | 1 | 1 |  | 0 (ThT-inactive (N-Fold <2)) | 0 (ThT-inactive (N-Fold <2)) | 0 (ThT-inactive (N-Fold <2)) | 0 (ThT-inactive (N-Fold <2)) | 0 (ThT-inactive (N-Fold <2)) | 1 | 1 | 0 (ThT-inactive (N-Fold <2)) | 0 (ThT-inactive (N-Fold <2)) |  |
| KIKIQIN | 43.43 | 1.638 |  |  | 1 |  | 1 | 1 | 1 | 1 | 0 (ThT-inactive (N-Fold <2)) |  | 0 (ThT-inactive (N-Fold <2)) |  | 0 (ThT-inactive (N-Fold <2)) |  |  |  |  | 0 (ThT-inactive (N-Fold <2)) |
| KIKIKIKIYYYY | 9918 | 3.996 |  |  | 0 |  | 0 | 0 | 0 | 0 | 0 (ThT-inactive (N-Fold <2)) |  | 0 (ThT-inactive (N-Fold <2)) |  | 0 (ThT-inactive (N-Fold <2)) |  |  |  |  | 0 (ThT-inactive (N-Fold <2)) |
| RPRGLLLGNLR | 210.1 | 2.322 |  |  | 0 |  | 0 | 0 | 0 |  | 0 (ThT-inactive (N-Fold <2)) |  | 0 (ThT-inactive (N-Fold <2)) | 0 (ThT-inactive (N-Fold <2)) | 0 (ThT-inactive (N-Fold <2)) | 0 | 0 | 0 (ThT-inactive (N-Fold <2)) | 0 (ThT-inactive (N-Fold <2)) |  |
| EFEFQF | 405.4 | 2.608 |  |  | 0 |  | 0 | 0 | 0 |  | 1 (ThT. Cat is 1, if Rel. ThT >2) |  | 1 (ThT. Cat is 1, if Rel. ThT >2) |  | 1 (ThT. Cat is 1, if Rel. ThT >2) | 0 | 0 | 1 (ThT. Cat is 1, if Rel. ThT >2) | 1 (ThT. Cat is 1, if Rel. ThT >2) | 1 (ThT. Cat is 1, if Rel. ThT >2) |
| KIKIQIAMWQ | 540.9 | 2.733 |  |  | 1 |  | 1 | 1 | 1 | 1 | 1 (ThT. Cat is 1, if Rel. ThT >2) |  | 1 (ThT. Cat is 1, if Rel. ThT >2) |  | 1 (ThT. Cat is 1, if Rel. ThT >2) |  |  |  |  | 1 (ThT. Cat is 1, if Rel. ThT >2) |
| FKFDKFKFDK | 45.13 | 1.6545 |  |  | 0 |  | 0 | 0 | 0 |  | 0 (ThT-inactive (N-Fold <2)) |  | 0 (ThT-inactive (N-Fold <2)) | 0 (ThT-inactive (N-Fold <2)) | 0 (ThT-inactive (N-Fold <2)) | 0 | 0 | 0 (ThT-inactive (N-Fold <2)) | 0 (ThT-inactive (N-Fold <2)) |  |
| QCKAKAQA | 1319.1 | 3.12 |  |  | 0 |  | 0 | 0 | 0 |  | 0 (ThT-inactive (N-Fold <2)) |  | 0 (ThT-inactive (N-Fold <2)) | 0 (ThT-inactive (N-Fold <2)) | 0 (ThT-inactive (N-Fold <2)) | 0 | 0 | 0 (ThT-inactive (N-Fold <2)) | 0 (ThT-inactive (N-Fold <2)) |  |
| QCKFKFQF | 2669 | 3.426 |  |  | 1 |  | 1 | 1 | 1 | 1 | 1 (ThT. Cat is 1, if Rel. ThT >2) |  | 1 (ThT. Cat is 1, if Rel. ThT >2) | 1 (ThT. Cat is 1, if Rel. ThT >2) | 1 (ThT. Cat is 1, if Rel. ThT >2) |  |  |  |  |  |
| KIKQIIN | 64.03 | 1.806 |  |  | 0 |  | 0 | 0 | 0 |  | 0 (ThT-inactive (N-Fold <2)) |  | 0 (ThT-inactive (N-Fold <2)) |  | 0 (ThT-inactive (N-Fold <2)) | 0 | 0 | 0 (ThT-inactive (N-Fold <2)) | 0 (ThT-inactive (N-Fold <2)) | 0 (ThT-inactive (N-Fold <2)) |
